Laboratory results from patent US20240180998A1, “MULTILAYERED PATCH” (KØBENHAVNS UNIVERSITET, priority 2021, published 2024).
≈ marks a conversion by molar mass, not a printed value.

Legend:
[1] = Huang et al., 2020, cited from earlier work
[2] = Drug loading of freeze-dried foam (disintegration of foam discs and quantification); format: physicochemical; details: for Loading efficiency (%): mean ± standard deviation
Method: The samples were incubated for 3 h at 37° C. and aliquots of 100 μL were withdrawn from each of the diffusion cells at specific time points and replenished with 100 μL warm (37° C.) hHBSS. The exact peptide dose was determined by disintegrating a 10 mm foam disc of known weight in 1 mL water for at least 1 h at RT. All samples were centrifuged (10,000 rpm/9279×g, 10 min, 4° C.) and the concentration of desmopressin in the supernatant was determined by reversed phase high performance liquid chromatography with UV detection (RP-HPLC-UV). Discs (10 mm in diameter) of NFF multilayered DDS were fixed in Ussing chamber […] […] 2 mL warm (37° C.) hHBSS without BSA pH 6.8 was added to each side of the sample. The samples were incubated for 3 h at 37° C. and aliquots of 100 μL were withdrawn from each of the diffusion cells at specific time points and replenished with 100 μl warm (37° C.) hHBSS without BSA pH 6.8.

C. albicans = details: Huang et al., 2020; cited from earlier work
[3] = drug loaded in foam, desmopressin at theoretical loading 29.13 μg/mg

Structure (SMILES) | Log P [1] | aqueous solubility ([1]; in water) [µg/mL] | Loading efficiency (%) [2, 3] [%] | minimal fungicidal concentration (MFC) (C. albicans) [µg/mL] | minimal inhibitory concentration (MIC) (C. albicans) [µg/mL] | Loading efficiency (%) ([2]; desmopressin at theoretical loading 107.17 μg/mg) | specific loading of desmopressin ([2]; foam of NFF, discs of 10 mm)
Clc1ccccc1C(c1ccccc1)(c1ccccc1)n1ccnc1 [Clotrimazole] | 6.3 | 0.49 (≈ 1.42 µM) | 110 ± 2 | 4 (≈ 11.6 µM) | 1 (≈ 2.9 µM) | – | –
NC(=O)CC[C@@H]1NC(=O)[C@H](Cc2ccccc2)NC(=O)[C@H](Cc2ccc(O)cc2)NC(=O)CCSSC[C@@H](C(=O)N2CCC[C@H]2C(=O)N[C@H](CCCN=C(N)N)C(=O)NCC(N)=O)NC(=O)[C@H](CC(N)=O)NC1=O [Desmopressin] | – | – | 97 ± 1 | – | – | 117 ± 1 | 28.2±0.2 μg per mg of foam
